Assays:
Assay in all cases: relative viability (nuclei count vs DMSO), 5 days (fraction); higher = more cells survive
XMD8-85 + Luminespib = compound: CN1CCN(CC1)C2=CC(=C(C=C2)NC3=NC=C4C(=N3)N(C5=CC=CC=C5C(=O)N4C)C)OC [XMD8-85] + CCNC(=O)c1noc(-c2cc(C(C)C)c(O)cc2O)c1-c1ccc(CN2CCOCC2)cc1 [Luminespib] (partner 0.01 µM)
Procedure, shortened: (§1)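 The day after seeding in 1536-well plates, lung cancer cell lines were treated by pin tool with a single drug, or with a fixed anchor-drug dose together with five library-drug doses (not always all listed) in √10 steps. After 5 days, a combined fix-and-stain solution (final 0.05% Triton X-100, 1% formaldehyde, 1 ug/ml Hoechst) was added. Nuclei counted on 4× images gave relative viability as treated counts over vehicle counts, reported as the median of duplicate plates.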

XMD8-85 + Olaparib = compound: CN1CCN(CC1)C2=CC(=C(C=C2)NC3=NC=C4C(=N3)N(C5=CC=CC=C5C(=O)N4C)C)OC [XMD8-85] + O=C(c1cc(Cc2n[nH]c(=O)c3ccccc23)ccc1F)N1CCN(C(=O)C2CC2)CC1 [Olaparib] (partner 8 µM)
Procedure, shortened: as §1

4EGI-1 + Pictilisib = compound: O=C(O)C(Cc1ccccc1[N+](=O)[O-])=NNc1nc(-c2ccc(Cl)c(Cl)c2)cs1 (mixture of isomers) [4EGI-1] + CS(=O)(=O)N1CCN(Cc2cc3nc(-c4cccc5[nH]ncc45)nc(N4CCOCC4)c3s2)CC1 [Pictilisib] (partner 1 µM)
Procedure, shortened: as §1

4EGI-1 + AZD7762 = compound: O=C(O)C(Cc1ccccc1[N+](=O)[O-])=NNc1nc(-c2ccc(Cl)c(Cl)c2)cs1 (mixture of isomers) [4EGI-1] + NC(=O)Nc1cc(-c2cccc(F)c2)sc1C(=O)N[C@H]1CCCNC1 [AZD7762] (partner 0.2 µM)
Procedure, shortened: as §1

| Cell Line | relative viability (XMD8-85 + Luminespib; first compound 0.08 µM) | relative viability (XMD8-85 + Luminespib; first compound 0.253 µM) | relative viability (XMD8-85 + Luminespib; first compound 0.8 µM) | relative viability (XMD8-85 + Luminespib; first compound 2.53 µM) | relative viability (XMD8-85 + Luminespib; first compound 8 µM) | relative viability (XMD8-85 + Olaparib; first compound 0.08 µM) | relative viability (XMD8-85 + Olaparib; first compound 0.253 µM) | relative viability (XMD8-85 + Olaparib; first compound 0.8 µM) | relative viability (XMD8-85 + Olaparib; first compound 2.53 µM) | relative viability (XMD8-85 + Olaparib; first compound 8 µM) | relative viability (4EGI-1 + Pictilisib; first compound 0.5 µM) | relative viability (4EGI-1 + Pictilisib; first compound 1.581 µM) | relative viability (4EGI-1 + Pictilisib; first compound 5 µM) | relative viability (4EGI-1 + Pictilisib; first compound 15.81 µM) | relative viability (4EGI-1 + Pictilisib; first compound 50 µM) | relative viability (4EGI-1 + AZD7762; first compound 0.5 µM) | relative viability (4EGI-1 + AZD7762; first compound 1.581 µM) | relative viability (4EGI-1 + AZD7762; first compound 5 µM) | relative viability (4EGI-1 + AZD7762; first compound 15.81 µM) | relative viability (4EGI-1 + AZD7762; first compound 50 µM) |
| --- | --- | --- | --- | --- | --- | --- | --- | --- | --- | --- | --- | --- | --- | --- | --- | --- | --- | --- | --- | --- |
| NCI-H1915 | 0.807 | 0.764 | 0.49 | 0.47 | 0.448 | 0.291 | 0.263 | 0.252 | 0.222 | 0.185 | 0.943 | 0.558 | 1.03 | 0.933 | 0.66 | 0.775 | 0.546 | 0.69 | 0.726 | 0.301 |
| NCI-H1944 | 0.658 | 0.838 | 0.751 | 0.491 | 0.507 | 0.39 | 0.393 | 0.44 | 0.402 | 0.338 | 0.357 | – | 0.331 | 0.33 | 0.285 | 0.626 | – | 0.604 | 0.453 | 0.212 |
| NCI-H1975 | 0.398 | 0.188 | 0.207 | 0.236 | 0.152 | 0.774 | 0.784 | 0.88 | 0.711 | 0.376 | 0.309 | 0.324 | 0.316 | 0.322 | 0.294 | 0.837 | 0.539 | 0.717 | 0.67 | 0.557 |
| NCI-H1993 | 0.79 | 0.837 | 0.929 | 0.928 | 0.746 | – | 0.942 | 1 | 1.07 | 0.792 | 0.919 | 0.761 | 0.781 | 0.736 | 0.862 | 0.904 | 0.689 | 0.937 | 0.504 | 0.356 |
| NCI-H2085 | 0.412 | 0.513 | 0.403 | 0.348 | 0.302 | 0.729 | 0.743 | 0.77 | 0.725 | 0.699 | 0.538 | 0.513 | 0.52 | 0.507 | 0.439 | 1.1 | 1.02 | 0.969 | 0.736 | 0.655 |
| NCI-H2087 | 0.182 | 0.167 | 0.159 | 0.118 | 0.175 | 0.527 | 0.688 | 0.7 | – | 0.533 | 1.02 | 0.813 | 0.888 | 0.626 | 0.386 | 1.42 | 1.48 | 1.34 | 1.06 | 0.391 |
| NCI-H2126 | 0.948 | 1 | 0.917 | 1.05 | 0.891 | 0.958 | 0.897 | 0.954 | 0.889 | 0.94 | 0.525 | 0.455 | 0.581 | 0.445 | 0.42 | 1.03 | 1.09 | 1 | 0.901 | 0.772 |
| NCI-H2170 | 0.887 | 0.609 | 0.931 | 0.894 | 0.474 | 0.51 | 0.627 | 0.599 | 0.601 | 0.532 | 0.316 | 0.306 | 0.319 | 0.253 | 0.22 | 0.923 | 0.806 | 1.03 | 0.697 | 0.244 |

From the supplement of paper PMC10307832
